Data reported in patent US20240238199A1, “STABLE LIQUID PHARMACEUTICAL COMPOSITIONS HAVING HIGH DRUG LOADINGS OF MEDIUM CHAIN TRIGLYCERIDES AND METHODS RELATED THERETO” (CERECIN INC., priority 2021, published 2024).

What was measured:
[1] = Emulsion physical stability (visual / overall assessment); format: physicochemical; details: at pH7
Source text: As described herein, the pharmaceutical compositions of the disclosure may form a stable liquid emulsion at ambient conditions. An emulsion refers to a composition which, when diluted with water or other aqueous medium and gently mixed, yields a stable oil/water emulsion with a mean particle size of less than about 1 μm, but greater than about 100 nm, (i.e., 0.1-1 μm) and which is generally polydisperse. Such an emulsion is stable, meaning there is no visibly detectable phase separation and that there is no visibly detectable crystallization.
Equal mix of Phospholipon 90 G, Kolliphor RH40 and Capmul PG-8 was also very stable. Particle size evolution of Phospholipon 90G, Kolliphor RH40, Capmul PG-8 emulsions prepared via Ultra Turrax emulsification are shown in FIG. 4, and particle size evolution of 10 Phospholipon 90G, Kolliphor RH40, Capmul PG-8 emulsions: prepared via Silverson & High Pressure Homogeniser emulsification are shown in FIG. 5. Visual appearance of Phospholipon 90G, Kolliphor RH40, Capmul PG-8 emulsions under a 1 month stability study are shown in FIG. 6.

[2] = Gamma irradiation: physiochemical testing pre & post treatment; format: physicochemical
Source text: Gamma irradiation is a commonly accepted method of sterilizing componentry and reducing bio load in natural materials. Exemplary formulations were irradiated at various dosages and then assessed for the impact of irradiation on product performance.

Structure (SMILES)	effect on emulsion stability [1]	Appearance: Complies/fails ([2]; gamma irradiation 10 kGy)	Assay: Complies/fails ([2]; gamma irradiation 10 kGy)	Related substances: Complies/fails ([2]; gamma irradiation 10 kGy)	Related substances: result after treatment ([2]; gamma irradiation 10 kGy)	Appearance: Complies/fails ([2]; gamma irradiation 15 kGy)	Assay: Complies/fails ([2]; gamma irradiation 15 kGy)	Related substances: Complies/fails ([2]; gamma irradiation 15 kGy)	Related substances: result after treatment ([2]; gamma irradiation 15 kGy)	Appearance: Complies/fails ([2]; gamma irradiation 25 kGy)	Assay: Complies/fails ([2]; gamma irradiation 25 kGy)	Related substances: Complies/fails ([2]; gamma irradiation 25 kGy)	Related substances: result after treatment ([2]; gamma irradiation 25 kGy)
CCCCCCCC/C=C\CCCCCCCC(=O)[O-].[Na+] [Sodium oleate]	slight destabilizing effect	–	–	–	–	–	–	–	–	–	–	–	–
CCCCCCCC(=O)OCC(COC(=O)CCCCCCC)OC(=O)CCCCCCC [Tricaprylin]	–	Complies	Complies	Complies*	profile changes	Complies	Complies	Complies*	profile changes	Complies	Complies	Complies*	profile changes
